In patent US9649314B2, “Pyrimido[4,5-b]quinoline-4,5(3H,10H)-diones” (NOVARTIS AG, priority 2012, dated 2017) one finds Emax and AC50 data, which are given here for 29 compounds.

The assay has as its system CFTR-Y122X. The assay can be described thus: CFTR-Y122X assay (dual reporter isogenic Hek293 cell lines, Renilla luminescence readthrough). Conditions: Homo sapiens, HEK293; for Emax / AC50: nonsense mutation suppression, 24 h incubation; for Emax: 100% = 14 mM paromomycin, tested up to 100 μM, read-out: Amax [%]; for Emax at 25 µM: measured at 25 μM compound concentration (footnote a), read-out: Amax [%]: % nonsense mutation suppression relative to paromomycin reference activity. The format is cell-based. From the text:
Activity of compounds of the present invention was examined in recombinant, dual reporter isogenic Hek293 cell lines (“CFTR-Y122X assay”). The engineered reporter constructs contained the 18 bp sequence stretch corresponding to a common Y122X PTC mutation in CFTR class I mutant patients (see Sermet-Gaudelus, BMC Medicine, 2007, 5(5)). Instead of a tyrosine (Y) in position 122 of the CFTR protein a TGA stop codon interrupts the open reading frame (Y122X) of the corresponding mRNA. This TGA stop codon triplet (followed by the pyrimidine base cytosine) is permissive to aminoglycoside mediated translational readthrough which served as positive control for high throughput screening. A corresponding TAA stop codon variant and a wildtype non mutated construct was used for confirmation and counter screening. The CFTR sequence was sandwiched between an eGFP reporter, and a triple myc tag sequence fused to a full length Renilla reporter. All sequences, including an intron containing one positioned pre-eGFP (b-globin intron) were cloned in frame. The corresponding expression constructs were stably expressed in the isogenic HEK-R4 cell host (Invitrogen Incorp.) and selected by blasticidin resistance. The isogenic integration of the construct minimizes gene dose effects and improves assay reproducibility. Stably integrated single cell derived clones were selected and characterized for aminoglycoside mediated readthrough. […] Readthrough of Y122X accumulates an intracellular localized fusion protein approximately 65.5 kDa in size as controlled by western blot analysis and immunofluorescence using an anti-renilla antibody. The eGFP reporter pre-PTC mutation serves as visual control for genetic stability of the screening clones and minimizes protein degradation of small fusion protein amounts. In the assay, compound concentration was 10 μM. In miniaturized 1536 well format 2000 cells were dispensed in 4 μl/well and incubated for 24 h at 37° C., 5% CO2. 40 nl compounds were placed on the cells with control wells containing 1 ul Paramomycin and 14.4 mM final concentration. Compounds were incubated for 24 h. Renilla Glo substrate (2.5 ul) was added and plates were centrifuged and processed for luminescence measurement using various readers. Activity calculation was done using the equation: A1 (%)=100*(S−NC)/(AC−NC) where AC, NC and S correspond to active controls (injection of Stimulation buffer=100% stimulation), neutral controls (buffer injection which Iloprost EC10) and screening samples (S). NC corresponds to 0% activity whereas AC is 100% activity (14 mM paromomycin). False positive artefacts were removed in confirmation and validation screening using the same assay format followed by counterscreening using the respective wildtype construct (w/o PTC mutation) cell model. Compounds were tested up to 100 μM compound concentration.

For the compound `NCCn1c2ccccc2c(=O)c2c(=O)n(-c3ccccc3)c(C3CCC3)nc21` [Example 1.37, 10-(2-aminoethyl)-2-cyclobutyl-3-phenylpyrimido[4,5-b]quinoline-4,5(3H,10H)-dione], the Emax amounted to 348% and the AC50 worked out at 0.9 µM.
For `CC(C)c1ccccc1-n1c(C(C)C)nc2c(c(=O)c3ccccc3n2C)c1=O` [Example 1.38, 2-isopropyl-3-(2-isopropylphenyl)-10-methylpyrimido[4,5-b]quinoline-4,5(3H,10H)-dione], the Emax was 15%.
On to `O=c1c2ccccc2n(CCO)c2nc(C3CCC3)n(-c3ccccc3)c(=O)c12` [Example 1.39, 2-cyclobutyl-10-(2-hydroxyethyl)-3-phenylpyrimido[4,5-b]quinoline-4,5(3H,10H)-dione], for which the Emax is 250% and the AC50 came to 3.2 µM.
On the same counts, the results for `CC(C)c1nc2c(c(=O)c3ccccc3n2C)c(=O)n1-c1ccccc1Br` [Example 1.40, 3-(2-bromophenyl)-2-isopropyl-10-methylpyrimido[4,5-b]quinoline-4,5(3H,10H)-dione] are 112% and 12.1 µM.
On the same counts, the results for `CC(C)c1nc2c(c(=O)c3ccccc3n2CCN)c(=O)n1-c1ccccc1` [Example 1.41, 10-(2-aminoethyl)-2-isopropyl-3-phenylpyrimido[4,5-b]quinoline-4,5(3H,10H)-dione] are 198% and 19.5 µM.
As for `CC(C)c1nc2c(c(=O)c3ccccc3n2CCO)c(=O)n1-c1ccccc1` [Example 1.42, 10-(2-hydroxyethyl)-2-isopropyl-3-phenylpyrimido[4,5-b]quinoline-4,5(3H,10H)-dione], the Emax is 117% and the activity was half-maximal at 15.7 µM (AC50).
For the compound `COCCn1c2ccccc2c(=O)c2c(=O)n(-c3ccccc3)c(C(C)C)nc21` [Example 1.43, 2-isopropyl-10-(2-methoxyethyl)-3-phenylpyrimido[4,5-b]quinoline-4,5(3H,10H)-dione], the Emax was 9%.
Regarding `CCCn1c2ccccc2c(=O)c2c(=O)n(-c3ccccc3)c(C(C)C)nc21` [Example 1.44, 2-isopropyl-3-phenyl-10-propylpyrimido[4,5-b]quinoline-4,5(3H,10H)-dione], the Emax is 118% and the activity was half-maximal at 15.2 µM (AC50).
Consider `CC(C)c1nc2c(c(=O)c3ccccc3n2C)c(=O)n1C1CCCOC1` (stereo not drawn) [Example 1.45, 2-isopropyl-10-methyl-3-(tetrahydro-2H-pyran-3-yl)pyrimido[4,5-b]quinoline-4,5(3H,10H)-dione], for which the Emax is 389% and the activity was half-maximal at 4.7 µM (AC50).
In the case of `Cn1c2ccccc2c(=O)c2c(=O)n(-c3c(Cl)cccc3Cl)c(C3CCC3)nc21` [Example 1.46, 2-cyclobutyl-3-(2,6-dichlorophenyl)-10-methylpyrimido[4,5-b]quinoline-4,5(3H,10H)-dione], the Emax is 25%.
Take `CCCCCCc1nc2c(c(=O)c3ccccc3n2C)c(=O)n1-c1ccccc1` [Example 1.47, 2-hexyl-10-methyl-3-phenylpyrimido[4,5-b]quinoline-4,5(3H,10H)-dione]: the Emax was determined as 210% and the activity was half-maximal at 11.3 µM (AC50).
For `CCCCCCCc1nc2c(c(=O)c3ccccc3n2C)c(=O)n1-c1ccccc1` [Example 1.48, 2-heptyl-10-methyl-3-phenylpyrimido[4,5-b]quinoline-4,5(3H,10H)-dione], the Emax was determined as 235% and the activity was half-maximal at 11.7 µM (AC50).
Turning to `C=CCn1c2ccccc2c(=O)c2c(=O)n(C3CCCC3)c(C(C)C)nc21` [Example 2.1, 10-allyl-3-cyclopentyl-2-isopropylpyrimido[4,5-b]quinoline-4,5(3H,10H)-dione], the Emax is 102% and the AC50 worked out at 21 µM.
For `CC(C)c1nc2[nH]c3ccccc3c(=O)c2c(=O)n1C1CCCC1` [Example 2.2, 3-cyclopentyl-2-isopropylpyrimido[4,5-b]quinoline-4,5(3H,10H)-dione], the Emax is 235% and the AC50 amounted to 2.1 µM.
Consider `CCn1c2ccccc2c(=O)c2c(=O)n(C3CCCC3)c(C(C)C)nc21` [Example 2.3, 3-cyclopentyl-10-ethyl-2-isopropylpyrimido[4,5-b]quinoline-4,5(3H,10H)-dione], for which the Emax is 101% and the activity was half-maximal at 21.6 µM (AC50).
With `CCC(C)c1nc2c(c(=O)c3ccccc3n2C)c(=O)n1C1CCCC1` (stereo not drawn) [Example 2.4, 2-(sec-butyl)-3-cyclopentyl-10-methylpyrimido[4,5-b]quinoline-4,5(3H,10H)-dione], the Emax is 258% and the AC50 was 6.1 µM.
In the case of `CC(C)Cc1nc2c(c(=O)c3ccccc3n2C)c(=O)n1C1CCCC1` [Example 2.5, 3-cyclopentyl-2-isobutyl-10-methylpyrimido[4,5-b]quinoline-4,5(3H,10H)-dione], the Emax is 243% and the activity was half-maximal at 8.1 µM (AC50).
Regarding `Cn1c2ccccc2c(=O)c2c(=O)n(C3CCCC3)c(C(C)(C)C)nc21` [Example 2.6, 2-(tert-butyl)-3-cyclopentyl-10-methylpyrimido[4,5-b]quinoline-4,5(3H,10H)-dione], the Emax at 25 µM was found to be 127%.
For the compound `CC(C)c1nc2c(c(=O)c3ccccc3n2C)c(=O)n1C1CCOCC1` [Example 2.7, 2-isopropyl-10-methyl-3-(tetrahydro-2H-pyran-4-yl)pyrimido[4,5-b]quinoline-4,5(3H,10H)-dione], the Emax at 25 µM was found to be 151%.
On to `CC(C)c1nc2c(c(=O)c3ccccc3n2C)c(=O)n1N1CCCCC1` [Example 2.8, 2-isopropyl-10-methyl-3-(piperidin-1-yl)pyrimido[4,5-b]quinoline-4,5(3H,10H)-dione], for which the Emax worked out at 264% and the AC50 turned out to be 10.6 µM.
Turning to `COc1cccc2c(=O)c3c(=O)n(C4CCCC4)c(C(C)C)nc3n(C)c12` [Example 2.9, 3-cyclopentyl-2-isopropyl-9-methoxy-10-methylpyrimido[4,5-b]quinoline-4,5(3H,10H)-dione], the Emax was found to be 73% and the activity was half-maximal at 18.4 µM (AC50).
Take `COc1ccc2c(c1)c(=O)c1c(=O)n(C3CCCC3)c(C(C)C)nc1n2C` [Example 2.10, 3-cyclopentyl-2-isopropyl-7-methoxy-10-methylpyrimido[4,5-b]quinoline-4,5(3H,10H)-dione]: the Emax came out at 25% and the activity was half-maximal at 25 µM (AC50).
Consider `CC(C)c1nc2c(c(=O)c3cc(Cl)ccc3n2C)c(=O)n1C1CCCC1` [Example 2.11, 7-chloro-3-cyclopentyl-2-isopropyl-10-methylpyrimido[4,5-b]quinoline-4,5(3H,10H)-dione], for which the Emax is 192% and the AC50 came out at 10.7 µM.
Take `CC(C)c1nc2c(c(=O)c3cc(Br)ccc3n2C)c(=O)n1C1CCCC1` [Example 2.12, 7-bromo-3-cyclopentyl-2-isopropyl-10-methylpyrimido[4,5-b]quinoline-4,5(3H,10H)-dione]: the Emax at 25 µM worked out at 23%.
Consider `C#Cc1ccc2c(c1)c(=O)c1c(=O)n(C3CCCC3)c(C(C)C)nc1n2C` [Example 2.13, 3-cyclopentyl-7-ethynyl-2-isopropyl-10-methylpyrimido[4,5-b]quinoline-4,5(3H,10H)-dione], for which the Emax came to 11%.
With `CC(C)c1nc2c(c(=O)c3cc(C#N)ccc3n2C)c(=O)n1C1CCCC1` [Example 2.14, 3-cyclopentyl-2-isopropyl-10-methyl-4,5-dioxo-3,4,5,10-tetrahydropyrimido[4,5-b]quinoline-7-carbonitrile], the Emax was determined as 9% and the AC50 is 6.6 µM.
Turning to `CC(C)c1nc2c(c(=O)c3ccccc3n2C)c(=O)n1C1CCCC1` [Example 2.15, 3-cyclopentyl-2-isopropyl-10-methylpyrimido[4,5-b]quinoline-4,5(3H,10H)-dione], the Emax stood at 275% and the AC50 came out at 3.8 µM.
Take `Cn1c2ccccc2c(=O)c2c(=O)n(C3CCCCC3)c(-c3ccccc3)nc21` [Example 2.16, 3-cyclohexyl-10-methyl-2-phenylpyrimido[4,5-b]quinoline-4,5(3H,10H)-dione]: the Emax was found to be 312% and the AC50 turned out to be 8.6 µM.
On the same counts, the results for `CCCCCc1nc2c(c(=O)c3ccccc3n2C)c(=O)n1C1CCCC1` [Example 2.18, 3-cyclopentyl-10-methyl-2-pentylpyrimido[4,5-b]quinoline-4,5(3H,10H)-dione] are 222% and 9.9 µM.
